Patent US11214803B2, “Modulators of YAP1 expression” (Ionis Pharmaceuticals, Inc., priority 2019, dated 2022)
Strand notation (5' to 3'): a small letter for the sugar, then the base; units joined by * are phosphorothioate-linked, units joined directly phosphodiester-linked; [ ] holds rarer units or linkages, { } end groups; capitals alone tell only the bases. k = constrained ethyl (cEt); [5mC] = 5-methylcytosine; d = 2'-deoxy (DNA)

System: Yap1 mRNA
Assay: Dose-dependent inhibition of human Yap1 in A-431 cells (Example 7, 10,000 cells per well, RTS36584)
Type: cell-based
Conditions: free uptake
Method: Modified oligonucleotides described in the studies above were tested at various doses in A-431 cells. Cultured A-431 cells at a density of 10,000 cells per well were treated using free uptake with modified oligonucleotides diluted to concentrations described in the tables below. After approximately 48 hours, Yap1 mRNA levels were measured as previously described using the Human Yap1 primer-probe set RTS36584. Yap1 mRNA levels were normalized to total RNA content, as measured by RIBOGREEN®. Results are presented in the tables below as percent control of the amount of Yap1 mRNA relative to untreated control cells (% UTC). IC50s were calculated using a linear regression on a log/linear plot of the data in excel.

[1] = 15.6 nM, A-431 cells, 10,000 cells per well, approximately 48 hours
[2] = 62.5 nM, A-431 cells, 10,000 cells per well, approximately 48 hours
[3] = 4000.00 nM, A-431 cells, 10,000 cells per well, approximately 48 hours
[4] = A-431 cells, approximately 48 hours, linear regression on log/linear plot
[5] = Table 58, 15.6 nM, A-431 cells 10,000 cells per well, 48 hours
[6] = Table 58, 62.5 nM, A-431 cells 10,000 cells per well, 48 hours
[7] = Table 58, 4000.00 nM, A-431 cells 10,000 cells per well, 48 hours
[8] = Table 58, A-431 cells 10,000 cells per well
[9] = Table 60, 15.6 nM, A-431 cells 10,000 cells per well, 48 hours
[10] = Table 60, 62.5 nM, A-431 cells 10,000 cells per well, 48 hours
[11] = Table 60, 4000.00 nM, A-431 cells 10,000 cells per well, 48 hours
[12] = Table 60, A-431 cells 10,000 cells per well

Substance: 958361 (antisense kG*k[5mC]*kT*d[5mC]*dG*dA*dA*d[5mC]*dA*dT*dG*d[5mC]*dT*kG*kT*kG) [compound 958361]
- Yap1 mRNA, % UTC (Table 56, 15.6 nM, A-431 cells 10,000 cells per well, 48 hours): 100 % UTC
- Yap1 mRNA, % UTC (Table 56, 62.5 nM, A-431 cells 10,000 cells per well, 48 hours): 80 % UTC
- Yap1 mRNA, % UTC (Table 56, 4000.00 nM, A-431 cells 10,000 cells per well, 48 hours): 22 % UTC
- IC50 (Table 56, A-431 cells 10,000 cells per well): 220 nM

Substance: 958585 (k[5mC]*kT*k[5mC]*dT*dA*dT*d[5mC]*dA*dA*dG*dG*dT*d[5mC]*k[5mC]*k[5mC]*k[5mC]; antisense) [compound 958585]
- Yap1 mRNA, % UTC [1]: 95 % UTC
- Yap1 mRNA, % UTC [2]: 71 % UTC
- Yap1 mRNA, % UTC [3]: 17 % UTC
- IC50 [4]: 200 nM

Substance: 958573 (kG*kG*k[5mC]*dA*dA*dA*dT*dT*dA*dT*dA*dG*dG*k[5mC]*kA*k[5mC]; antisense) [compound 958573]
- Yap1 mRNA, % UTC (Table 59, 15.6 nM, A-431 cells 10,000 cells per well, 48 hours): 81 % UTC
- Yap1 mRNA, % UTC (Table 59, 62.5 nM, A-431 cells 10,000 cells per well, 48 hours): 56 % UTC
- Yap1 mRNA, % UTC (Table 59, 4000.00 nM, A-431 cells 10,000 cells per well, 48 hours): 8 % UTC
- IC50 (Table 59, A-431 cells 10,000 cells per well): 100 nM

Substance: 958807 (kT*k[5mC]*kA*dT*dT*dG*dT*dA*dG*dT*d[5mC]*dT*dG*kT*k[5mC]*kT; antisense) [compound 958807]
- Yap1 mRNA, % UTC [5]: 92 % UTC
- Yap1 mRNA, % UTC [6]: 65 % UTC
- Yap1 mRNA, % UTC [7]: 10 % UTC
- IC50 [8]: 100 nM

Substance: 958757 (kG*kT*kG*dA*dT*d[5mC]*dT*dG*d[5mC]*dA*d[5mC]*dA*dT*kT*kG*kT; antisense) [compound 958757]
- Yap1 mRNA, % UTC [5]: 110 % UTC
- Yap1 mRNA, % UTC [6]: 89 % UTC
- Yap1 mRNA, % UTC [7]: 27 % UTC
- IC50 [8]: 300 nM

Substance: 958457 (antisense kG*kT*k[5mC]*dG*dA*dA*dG*dA*dT*dG*d[5mC]*dT*dG*kA*kG*k[5mC]) [compound 958457]
- Yap1 mRNA, % UTC [5]: 91 % UTC
- Yap1 mRNA, % UTC [6]: 50 % UTC
- Yap1 mRNA, % UTC [7]: 13 % UTC
- IC50 [8]: 100 nM

Substance: 958813 (kT*kT*kA*d[5mC]*dA*dG*dA*dG*dA*dG*dA*dT*dT*k[5mC]*kA*kT; antisense) [compound 958813]
- Yap1 mRNA, % UTC [9]: 81 % UTC
- Yap1 mRNA, % UTC [10]: 79 % UTC
- Yap1 mRNA, % UTC [11]: 29 % UTC
- IC50 [12]: 200 nM

Substance: 958595 (k[5mC]*k[5mC]*kA*d[5mC]*dA*dT*d[5mC]*dA*dA*dG*dG*d[5mC]*dT*kA*kT*kG; antisense) [compound 958595]
- Yap1 mRNA, % UTC [1]: 83 % UTC
- Yap1 mRNA, % UTC [2]: 57 % UTC
- Yap1 mRNA, % UTC [3]: 16 % UTC
- IC50 [4]: 100 nM

Substance: 958451 (antisense k[5mC]*kA*k[5mC]*dG*dA*dT*d[5mC]*dT*dG*dA*dT*dG*d[5mC]*k[5mC]*k[5mC]*kG) [compound 958451]
- Yap1 mRNA, % UTC (Table 57, 15.6 nM, A-431 cells 10,000 cells per well, 48 hours): 98 % UTC
- Yap1 mRNA, % UTC (Table 57, 62.5 nM, A-431 cells 10,000 cells per well, 48 hours): 74 % UTC
- Yap1 mRNA, % UTC (Table 57, 4000.00 nM, A-431 cells 10,000 cells per well, 48 hours): 23 % UTC
- IC50 (Table 57, A-431 cells 10,000 cells per well): 200 nM

Substance: 958598 (k[5mC]*k[5mC]*k[5mC]*dA*dA*dT*dG*d[5mC]*dT*dA*d[5mC]*d[5mC]*d[5mC]*kA*kA*kT; antisense) [compound 958598]
- Yap1 mRNA, % UTC [9]: 93 % UTC
- Yap1 mRNA, % UTC [10]: 58 % UTC
- Yap1 mRNA, % UTC [11]: 19 % UTC
- IC50 [12]: 100 nM

Substance: 958805 (k[5mC]*kA*kA*dG*dA*dT*dA*dA*dT*d[5mC]*dA*dT*d[5mC]*k[5mC]*kT*k[5mC]; antisense) [compound 958805]
- Yap1 mRNA, % UTC [1]: 90 % UTC
- Yap1 mRNA, % UTC [2]: 89 % UTC
- Yap1 mRNA, % UTC [3]: 28 % UTC
- IC50 [4]: 300 nM

Substance: 958565 (kT*kT*kG*dA*dG*d[5mC]*dA*d[5mC]*dT*dG*dA*dA*dA*kG*kT*kA; antisense) [compound 958565]
- Yap1 mRNA, % UTC [1]: 83 % UTC
- Yap1 mRNA, % UTC [2]: 62 % UTC
- Yap1 mRNA, % UTC [3]: 13 % UTC
- IC50 [4]: 100 nM

Substance: 958545 (kA*k[5mC]*kT*d[5mC]*dT*dA*dG*dT*dT*dA*d[5mC]*dA*dT*k[5mC]*kA*kT; antisense) [compound 958545]
- Yap1 mRNA, % UTC [1]: 75 % UTC
- Yap1 mRNA, % UTC [2]: 50 % UTC
- Yap1 mRNA, % UTC [3]: 8 % UTC
- IC50 [4]: 100 nM

Substance: 958730 (k[5mC]*kT*k[5mC]*dT*dG*dT*d[5mC]*dA*dG*dT*dT*dA*dT*k[5mC]*k[5mC]*kT; antisense) [compound 958730]
- Yap1 mRNA, % UTC [1]: 88 % UTC
- Yap1 mRNA, % UTC [2]: 48 % UTC
- Yap1 mRNA, % UTC [3]: 7 % UTC
- IC50 [4]: 100 nM
